Patent publication US8609654B1, “Compounds for enzyme inhibition” (Onyx Therapeutics, Inc., priority 2006, dated 2013)

Assays:
[1] = biological target: T1, 26S proteasome CT-L activity in lysate of HT29 (constitutive) vs Sultan/Thp1 (immunoproteasome) cells (Homo sapiens, UniProt P28062+P28074); test: CT-L EC50 with 26S proteasome in cell lysate (Lysate ratio); format: biochemical; conditions: HT29 lysate to Sultan/Thp1 lysate, >1 = prefers immunoproteasome
T1 construct: using 26S proteasome in the context of a cell lysate; endogenous in cells; host or cells: HT29 lysate (constitutive); Sultan or THP1 lysate (immunoproteasome)
T1 sequence (P28074 60-263): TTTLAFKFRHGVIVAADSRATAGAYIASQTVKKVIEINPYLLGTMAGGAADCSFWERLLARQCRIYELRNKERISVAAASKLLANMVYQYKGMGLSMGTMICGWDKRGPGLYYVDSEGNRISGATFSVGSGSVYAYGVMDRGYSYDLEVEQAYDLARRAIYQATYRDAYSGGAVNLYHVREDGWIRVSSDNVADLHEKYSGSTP
T1 sequence (P28062 73-276): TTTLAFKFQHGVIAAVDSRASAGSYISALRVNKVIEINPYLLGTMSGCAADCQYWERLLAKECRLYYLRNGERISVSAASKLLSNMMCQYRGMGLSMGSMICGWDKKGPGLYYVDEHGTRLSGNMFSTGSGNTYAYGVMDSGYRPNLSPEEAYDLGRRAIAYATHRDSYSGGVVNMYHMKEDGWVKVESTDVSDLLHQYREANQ
Protocol: Alternatively, the CT-L EC50 of a compound can be determined using 26S proteasome in the context of a cell lysate. Compound is added to lysate generated from cells that either predominantly express constitutive proteasome (e.g., HT29) or immunoproteasome (e.g., THP1). Again, the inhibitory preference is then based on the EC50 ratio (Lysate ratio).

[2] = biological target: T2, 20S proteasome subunit β5 vs immunoproteasome subunit LMP7 in RPMI-8226 cells (Homo sapiens, UniProt P28062+P28074); test: ELISA-based active site assay in RPMI-8226 cells (ELISA ratio); format: cell-based; conditions: for Elisa ratio (beta5:LMP7): EC50 ratio with β5 antibody to LMP7 antibody, RPMI-8226 cells, >1 = prefers immunoproteasome
T2 construct: Cells expressing approximately equivalent amounts of immuno- and constitutive proteasome (e.g., RPMI-8226) are treated with test compound; endogenous in cells; host or cells: RPMI-8226 multiple myeloma cells
T2 sequence (P28074 60-263): T1 sequence (P28074 60-263)
T2 sequence (P28062 73-276): T1 sequence (P28062 73-276)
Protocol: Lastly, a more cell-based approach can be utilized. Cells expressing approximately equivalent amounts of immuno- and constitutive proteasome (e.g., RPMI-8226) are treated with test compound, followed by the method for determining the activity of a proteasome inhibitor as described in application Ser. No. 11/254,541. The ratio of the EC50 generated in the ELISA-based assay using β5 antibody and LMP7 antibodies (ELISA ratio) provides the basis for determining the inhibitory preference of the test compound. […] In all three assays, a ratio of less than one denotes the molecule inhibits the CT-L activity of the constitutive proteasome better than that of the immunoproteasome. Ratios greater than one signifies the molecule inhibits chymotrypsin-like activity of the immunoproteasome better than that of the constitutive proteasome.
A suitable ELISA assay may be found in U.S. patent application Ser. No. 11/254,541, incorporated herein in its entirety. Briefly, RPMI-8226 cells were treated with 0.1 nM to 1 μM of proteasome Inhibitor B. The samples were then washed with phosphate-buffered saline (PBS) and lysed in hypotonic buffer (20 mM Tris pH 8, 5 mM EDTA) (Tris-HCl and EDTA are available from Teknova, Inc., Hollister, Calif.). Cellular debris was removed by centrifugation at 14,000 rpm in a microfuge (4° C.) for 2 min. The supernatant was transferred to a fresh tube, snap frozen in liquid nitrogen and stored at −80° C. After thawing on ice, the samples (30 μl for assays run in triplicate) were treated with 500 nM of Inhibitor A for 1 hr at room temperature. Following treatment with Inhibitor A, the lysate was denatured by addition of seven volumes of 1% SDS (210 μl) (available from Bio-Rad, Hercules, Calif.) and heating at 99° C. with vigorous shaking for 5 min. The sample was allowed to cool and two volumes (60 μl) of 10% Triton X-100 (available from Bio-Rad, Hercules, Calif.) was added.
Streptavidin sepharose beads (6.5 μl/well) (available from Amersham Biosciences, Piscataway, N.J.), were washed three times with 1 ml PBS (available from Mediatech, Inc., Herndon, Va.) in a microcentrifuge tube. The beads were resuspended in ELISA wash/block buffer (PBS+0.1% Tween 20+1% bovine serum albumin; 20 μl/well) and transferred to the wells of a 96 well filter plate (BSA is available from Sigma, St. Louis, Mo.; Tween is available from Calbiochem, San Diego, Calif.). Denatured whole blood or PBMC lysates that were treated with Inhibitor 3 were added to the filter plate wells containing the streptavidin sepharose beads (each sample assayed in triplicate) and incubated for 1 hr at room temperature with shaking (MultiScreen-DV Opaque Plates with low protein binding durapore membrane; available from Millipore, Billerica, Mass.). The unbound material was removed by gentle filtration and the beads were washed six times with ELISA wash/block buffer (200 μl each).
Primary antibody to human 20S proteasome subunit (35 (rabbit polyclonal antibody; available from Biomol, Plymouth Meeting, Pa.) or human 20S immunoproteasome subunit LMP7 (rabbit polyclonal antibody; available from Affinity BioReagents, Golden, Colo.) was diluted 1:1000 in ELISA wash/block buffer, added to the beads (100 μl/well), and incubated for 1 hr at room temperature on an orbital shaker. The beads were washed six times with ELISA wash/block buffer with gentle filtration. Secondary antibody treatment (1:5000) and washing are as described for primary antibody (goat anti-rabbit antibody-HRP conjugate; available from Biosource, Camarillo, Calif.). The beads were then resuspended in 100 μl chemiluminescent detection reagent (Super Signal Pico Chemiluminescent Substrate™; available from Pierce, Rockford, Ill.) and luminescence was read on a Tecan plate reader. […]

[3] = tested on: chymotryptic-like activity of isolated 20S constitutive proteasome vs immunoproteasome; test: Enzyme kinetic assay with isolated 20S proteasome preps, EC50 ratio of CT-L activity (20S ratio); format: biochemical; conditions: constitutive proteasome to immunoproteasome, >1 = prefers immunoproteasome
Source text: Enzyme kinetic assays such as those disclosed in U.S. application Ser. No. 09/569,748, Example 2 and Stein et al., Biochem. (1996), 35, 3899-3908 use isolated 20S proteasome preps with greater than 90% constitutive proteasome subunits or immunoproteasome subunits. The inhibitory preference of the molecule is then based on the EC50 ratio of the chymotryptic-like activity of the constitutive proteasome to that of the immunoproteasome (20S ratio).

Row | Structure (SMILES) | Lysate ratio (HT29:Sultan/Thp1) [1] | Elisa ratio (beta5:LMP7) [2] | 20 S ratio (const:immuno) [3] | ELISA ratio (EC50 β5 antibody : LMP7 antibody) ([2]; RPMI-8226 cells treated with 0.1 nM to 1 μM)
1 | Cc1ccc(CCC(=O)N[C@@H](CC(C)C)C(=O)N[C@@H](Cc2ccccc2)C(=O)N[C@@H](CC(C)C)C(=O)C2(C)CO2)cc1 (some centres unmarked) | <0.5 |  |  | 
2 | CC[C@H](C)C(NC(=O)[C@H](Cc1c[nH]c2ccccc12)NC(=O)[C@H](C)NC(=O)OCc1ccccc1)C(=O)C1(C)CO1 (some centres unmarked) | <0.5 | <1.0 | <0.5 | 
3 | CC(NC(=O)OCc1ccccc1)C(=O)N[C@@H](Cc1ccccc1)C(=O)N[C@@H](C)C(=O)C1(C)CO1 (some centres unmarked) | <0.5 | <0.5 | <0.5 | 
4 | COc1ccc(NC(=S)N[C@@H](CC(C)C)C(=O)N[C@@H](Cc2ccccc2)C(=O)N[C@@H](CC(C)C)C(=O)C2(C)CO2)cc1 (some centres unmarked) | <0.5 |  |  | 
5 | CC(C)C[C@H](NC(=O)CN1CCOCC1)C(=O)N[C@@H](Cc1ccccc1)C(=O)N[C@@H](CC(C)C)C(=O)C1(C)CO1 (some centres unmarked) | <0.5 | <0.5 | <0.5 | 
6 | CC1(C(=O)[C@H](Cc2ccccc2)NC(=O)[C@H](Cc2ccccc2)NC(=O)[C@H](Cc2c[nH]cn2)NC(=O)OCc2ccccc2)CO1 (some centres unmarked) | <1.0 | <1.0 | <1.0 | 
7 | CC1(C(=O)[C@H](Cc2ccccc2)NC(=O)[C@H](Cc2ccccc2)NC(=O)CNC(=O)OCc2ccccc2)CO1 (some centres unmarked) | >5.0 | >2.0 | >3.0 | 
8 | CC(C)C[C@H](NC(=O)[C@H](Cc1ccccc1)NC(=O)C(C)NC(=O)OCc1ccccc1)C(=O)C1(C)CO1 (some centres unmarked) | <0.5 | <1.0 | <0.5 | 
9 | CC(C)CC(NC(=O)Nc1ccccc1)C(=O)N[C@@H](Cc1ccccc1)C(=O)N[C@@H](CC(C)C)C(=O)C1(C)CO1 (some centres unmarked) | <0.5 |  |  | 
10 | Cc1ccc(C[C@H](NC(=O)[C@H](C)NC(=O)OCc2ccccc2)C(=O)N[C@@H](Cc2ccccc2)C(=O)C2(C)CO2)cc1 (some centres unmarked) | >5.0 | >5.0 | >2.0 | 
11 | CC(C)C(NC(=O)OCc1ccccc1)C(=O)N[C@@H](Cc1ccccc1)C(=O)N[C@@H](Cc1ccccc1)C(=O)C1(C)CO1 (some centres unmarked) | >2.0 | >2.0 | >5.0 | 
12 | COc1ccc(C[C@H](NC(=O)C(C)NC(=O)OCc2ccccc2)C(=O)N[C@@H](Cc2ccccc2)C(=O)C2(C)CO2)cc1 (some centres unmarked) [drawing 66] | >3.0 | >5.0 | >5.0 | 
13 | CC(C)C(NC(=O)OCc1ccccc1)C(=O)N[C@@H](Cc1c[nH]c2ccccc12)C(=O)N[C@@H](Cc1ccccc1)C(=O)C1(C)CO1 (some centres unmarked) | >5.0 | >5.0 | >5.0 | 
14 | CC1(C(=O)[C@H](Cc2ccccc2)NC(=O)[C@H](Cc2ccccc2)NC(=O)[C@@H](Cc2ccccc2)NC(=O)OCc2ccccc2)CO1 (some centres unmarked) | >2.0 | >3.0 | >5.0 | 
15 | CC[C@@H](NC(=O)OCc1ccccc1)C(=O)N[C@@H](Cc1c[nH]c2ccccc12)C(=O)N[C@@H](Cc1ccccc1)C(=O)C1(C)CO1 (some centres unmarked) [inhibitor (B)] |  |  |  | greater than 20
16 | CC(NC(=O)OCc1ccccc1)C(=O)N[C@@H](Cc1csc2ccccc12)C(=O)N[C@@H](Cc1ccccc1)C(=O)C1(C)CO1 (some centres unmarked) | >1.0 | >3.0 | >1.0 | 
17 | C[C@H](NC(=O)OCc1ccccc1)C(=O)N[C@@H](Cc1ccc(C#N)cc1)C(=O)N[C@@H](Cc1ccccc1)C(=O)C1(C)CO1 (some centres unmarked) | >2.0 | >5.0 | >1.0 | 
18 | COc1ccc(NC(=O)NC(CC(C)C)C(=O)N[C@@H](Cc2ccccc2)C(=O)N[C@@H](CC(C)C)C(=O)C2(C)CO2)cc1 (some centres unmarked) | <0.5 |  |  | 
19 | CC(NC(=O)OCc1ccccc1)C(=O)N[C@@H](Cc1ccccc1)C(=O)N[C@@H](CCc1ccccc1)C(=O)C1(C)CO1 (some centres unmarked) | >3.0 | >3.0 | >2.0 | 
20 | C[C@H](NC(=O)OCc1ccccc1)C(=O)N[C@@H](Cc1c[nH]c2ccccc12)C(=O)N[C@@H](Cc1ccccc1)C(=O)C1(C)CO1 (some centres unmarked) | >2.0 | >5.0 | >1.0 | 
21 | C[C@H](NC(=O)OCc1ccccc1)C(=O)N[C@@H](Cc1c[nH]c2ccccc12)C(=O)N[C@@H](C)C(=O)C1(C)CO1 (some centres unmarked) |  |  | <0.5 | 
22 | C[C@H](NC(=O)OCc1ccccc1)C(=O)N[C@@H](Cc1ccc(C(F)(F)F)cc1)C(=O)N[C@@H](Cc1ccccc1)C(=O)C1(C)CO1 (some centres unmarked) | >3.0 | >2.0 | >1.0 | 
23 | CC1(C(=O)[C@H](Cc2ccccc2)NC(=O)[C@H](Cc2ccccc2)NC(=O)[C@H](CCC(N)=O)NC(=O)OCc2ccccc2)CO1 (some centres unmarked) | >3.0 | >5.0 | >2.0 | 
24 | CC1(C(=O)[C@H](Cc2ccccc2)NC(=O)[C@H](Cc2c[nH]c3ccccc23)NC(=O)C(CC(=O)O)NC(=O)OCc2ccccc2)CO1 (some centres unmarked) | >3.0 | >2.0 | >3.0 | 
25 | CC(NC(=O)OCc1ccccc1)C(=O)N1Cc2ccccc2C[C@@H]1C(=O)N[C@@H](Cc1ccccc1)C(=O)C1(C)CO1 (some centres unmarked) | <1.0 | <0.5 | <1.0 | 
26 | CC[C@@H](C)C(NC(=O)[C@H](Cc1ccccc1)NC(=O)C(C)NC(=O)OCc1ccccc1)C(=O)C1(C)CO1 (some centres unmarked) |  | <1.0 |  | 
27 | CC(C)C[C@H](NC(=O)[C@H](Cc1c[nH]c2ccccc12)NC(=O)[C@H](C)NC(=O)OCc1ccccc1)C(=O)C1(C)CO1 (some centres unmarked) |  |  | <0.5 | 
